Results taken from ChEMBL document CHEMBL1201862, “PubChem BioAssay data set” (2004).
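Following 48 hours of exposure in 96-well plates, responses at five concentrations were used to interpolate endpoints linearly. Here, GI50 denotes the concentration required for 50% inhibition of growth.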 Active and inactive are the calls of the source. Cut-off read from the data, not from the text of the source: active = GI50 up to about 1.1 µM and inactive = higher.

Key:
Assay in all cases: NCI-60 cell line screen, 48 h
[1] = tested on: UO-31
[2] = tested on: LOX IMVI
[3] = tested on: SNB-75
[4] = tested on: HCC 2998
[5] = tested on: 786-0
[6] = tested on: SNB-19
[7] = tested on: SK-MEL-5
[8] = tested on: OVCAR-3
[9] = tested on: IGROV-1
[10] = tested on: SR
[11] = tested on: SF-295
[12] = tested on: COLO 205
[13] = tested on: M14
[14] = tested on: A498
[15] = tested on: NCI-H23
[16] = tested on: NCI-H226
[17] = tested on: HOP-92

Row | SMILES | GI50 [1] | GI50 [2] | GI50 [3] | GI50 [4] | GI50 [5] | GI50 [6] | GI50 [7] | GI50 [8] | GI50 [9] | GI50 [10] | GI50 [11] | GI50 [12] | GI50 [13] | GI50 [14] | GI50 [15] | GI50 [16] | GI50 [17]
1 | C=C1C(=O)OC2CCCCC3OC3C12 (stereo not drawn) | 15.4 µM (inactive) | 15.8 µM (inactive) | 20.4 µM (inactive) | 11.7 µM (inactive) | 7.19 µM (inactive) | 20 µM (inactive) | 3.99 µM (inactive) | 13.4 µM (inactive) | 17.1 µM (inactive) | 23 µM (inactive) | 23.2 µM (inactive) | 3.23 µM (inactive) | 7.16 µM (inactive) | 15.3 µM (inactive) | 14.4 µM (inactive) | – | –
2 | O=C(Nc1ccc(Cl)cc1)c1cc([N+](=O)[O-])ccc1O | 2.6 µM (inactive) | 3.29 µM (inactive) | 3.84 µM (inactive) | 2.32 µM (inactive) | 3.76 µM (inactive) | 3.77 µM (inactive) | 2.8 µM (inactive) | 2.67 µM (inactive) | 3.27 µM (inactive) | 5.57 µM (inactive) | 4.95 µM (inactive) | 3.27 µM (inactive) | 3.65 µM (inactive) | 2.47 µM (inactive) | 2.64 µM (inactive) | 3.55 µM (inactive) | –
3 | C/C(=C\CBr)CCC(Br)C(C)(C)Cl (stereo not drawn) | > 100 µM (inactive) | > 100 µM (inactive) | > 100 µM (inactive) | – | > 100 µM (inactive) | – | > 100 µM (inactive) | – | > 100 µM (inactive) | > 100 µM (inactive) | > 100 µM (inactive) | > 100 µM (inactive) | > 100 µM (inactive) | – | > 100 µM (inactive) | > 100 µM (inactive) | > 100 µM (inactive)
4 | COc1ccc(-c2oc(/C=N/NC(N)=S)c([N+](=O)[O-])c2-c2ccc(OC)c(OC)c2)cc1OC | – | 15.9 µM (inactive) | 18 µM (inactive) | – | 27.1 µM (inactive) | 36.1 µM (inactive) | – | 16.7 µM (inactive) | 28.3 µM (inactive) | – | 20.7 µM (inactive) | > 100 µM (inactive) | 20.7 µM (inactive) | – | 32 µM (inactive) | 28.1 µM (inactive) | 24.2 µM (inactive)
5 | O=S1(=O)[C@H](c2ccccc2)c2c(-c3ccccc3)sc(-c3ccccc3)c2[C@@H]1c1ccccc1 | > 100 µM (inactive) | 58.5 µM (inactive) | 26.1 µM (inactive) | > 100 µM (inactive) | 38.9 µM (inactive) | > 100 µM (inactive) | 71.9 µM (inactive) | > 100 µM (inactive) | > 100 µM (inactive) | – | > 100 µM (inactive) | > 100 µM (inactive) | > 100 µM (inactive) | – | > 100 µM (inactive) | – | 27 µM (inactive)
6 | COc1cc(C(=O)C/C(CCCC(=O)Nc2ccccc2[N+](=O)[O-])=N/NC(=O)c2cc3ccccc3cc2O)ccc1O | 13.9 µM (inactive) | 23.9 µM (inactive) | > 91.2 µM (inactive) | 28.9 µM (inactive) | 32.4 µM (inactive) | > 80.2 µM (inactive) | 34.4 µM (inactive) | 16.1 µM (inactive) | 34.4 µM (inactive) | – | 44.4 µM (inactive) | 21.7 µM (inactive) | 20.8 µM (inactive) | > 100 µM (inactive) | 41.4 µM (inactive) | > 81.7 µM (inactive) | 32.7 µM (inactive)
7 | O=C1NC2(CCCCC2)C2CCCCC=C12 (stereo not drawn) | > 100 µM (inactive) | > 100 µM (inactive) | > 100 µM (inactive) | – | > 100 µM (inactive) | > 100 µM (inactive) | > 100 µM (inactive) | > 100 µM (inactive) | > 100 µM (inactive) | > 100 µM (inactive) | > 100 µM (inactive) | > 100 µM (inactive) | > 100 µM (inactive) | > 100 µM (inactive) | > 100 µM (inactive) | – | > 100 µM (inactive)
8 | COc1ccc2c3c(c(C(=O)c4ccccc4)oc13)CCC2 | – | > 100 µM (inactive) | 81.5 µM (inactive) | > 100 µM (inactive) | > 100 µM (inactive) | > 100 µM (inactive) | > 100 µM (inactive) | > 100 µM (inactive) | > 100 µM (inactive) | – | > 100 µM (inactive) | > 100 µM (inactive) | > 100 µM (inactive) | > 100 µM (inactive) | 20.8 µM (inactive) | – | < 0.01 µM (active)
9 | CNC(=O)OCc1cc2ccncc2c2c1[nH]c1ccccc12 | > 100 µM (inactive) | > 22.1 µM (inactive) | > 40.4 µM (inactive) | > 58.5 µM (inactive) | 26.7 µM (inactive) | > 53.7 µM (inactive) | > 100 µM (inactive) | > 100 µM (inactive) | > 26.9 µM (inactive) | 2.12 µM (inactive) | > 100 µM (inactive) | > 28.3 µM (inactive) | > 100 µM (inactive) | – | > 100 µM (inactive) | > 100 µM (inactive) | > 100 µM (inactive)
10 | CCOC(=O)C(=O)Nc1c(C)cccc1C(C)(C)C | > 100 µM (inactive) | > 100 µM (inactive) | 49.1 µM (inactive) | > 100 µM (inactive) | > 100 µM (inactive) | > 100 µM (inactive) | > 100 µM (inactive) | > 100 µM (inactive) | > 100 µM (inactive) | – | > 100 µM (inactive) | > 100 µM (inactive) | > 100 µM (inactive) | – | > 100 µM (inactive) | > 100 µM (inactive) | > 100 µM (inactive)
11 | C=C(C)C12CC3CC(/C(=N/O)C(C1)/C3=N\O)[C@@]2(C)O (stereo partly drawn) | > 100 µM (inactive) | > 100 µM (inactive) | 93.8 µM (inactive) | > 100 µM (inactive) | > 100 µM (inactive) | > 100 µM (inactive) | > 100 µM (inactive) | > 100 µM (inactive) | > 100 µM (inactive) | > 100 µM (inactive) | > 100 µM (inactive) | > 100 µM (inactive) | > 100 µM (inactive) | – | > 100 µM (inactive) | > 100 µM (inactive) | –
12 | O=C(c1ccc(Cl)cc1)c1ccc(OCCSCCCCCCCCCCSCCOc2ccc(C(=O)c3ccc(Cl)cc3)cc2)cc1 | > 100 µM (inactive) | > 100 µM (inactive) | > 100 µM (inactive) | > 100 µM (inactive) | > 100 µM (inactive) | > 100 µM (inactive) | > 100 µM (inactive) | > 100 µM (inactive) | > 100 µM (inactive) | – | 91.8 µM (inactive) | > 100 µM (inactive) | – | > 100 µM (inactive) | > 100 µM (inactive) | > 100 µM (inactive) | > 100 µM (inactive)
13 | O=Cc1c(O)c(C(=O)Nc2ccc3[nH]c(=O)[nH]c3c2)cc2ccccc12 | > 100 µM (inactive) | > 100 µM (inactive) | > 100 µM (inactive) | > 100 µM (inactive) | > 100 µM (inactive) | > 100 µM (inactive) | > 100 µM (inactive) | > 100 µM (inactive) | > 100 µM (inactive) | – | > 100 µM (inactive) | > 100 µM (inactive) | > 100 µM (inactive) | > 100 µM (inactive) | > 100 µM (inactive) | > 100 µM (inactive) | > 100 µM (inactive)
14 | CCCCc1c2c(nc3c1CC/C(=C\c1ccc([N+](=O)[O-])cc1)C3=O)CCCC2 | 2.13 µM (inactive) | 1.6 µM (inactive) | 8.65 µM (inactive) | 1.78 µM (inactive) | 1.43 µM (inactive) | 1.87 µM (inactive) | – | 1.76 µM (inactive) | 1.8 µM (inactive) | 2.86 µM (inactive) | 2.1 µM (inactive) | 2.81 µM (inactive) | 1.85 µM (inactive) | – | – | 2.28 µM (inactive) | –
15 | Cc1ccc(NC(=O)C(=O)C(C(=O)c2ccc3ccccc3c2)C2OC(=O)c3ccccc32)c(C)c1 (stereo not drawn) | 13.1 µM (inactive) | 10.6 µM (inactive) | 9.14 µM (inactive) | 8.99 µM (inactive) | 6.93 µM (inactive) | 4.37 µM (inactive) | 11.1 µM (inactive) | 9.38 µM (inactive) | 10.9 µM (inactive) | – | – | 11.1 µM (inactive) | 14.7 µM (inactive) | 6.1 µM (inactive) | 8.13 µM (inactive) | 2.63 µM (inactive) | 7.03 µM (inactive)
16 | COc1ccc(C(=O)C(CO)Oc2ccccc2OC)cc1OC (stereo not drawn) | > 100 µM (inactive) | > 100 µM (inactive) | > 100 µM (inactive) | > 100 µM (inactive) | > 100 µM (inactive) | > 100 µM (inactive) | > 100 µM (inactive) | > 100 µM (inactive) | > 100 µM (inactive) | – | > 100 µM (inactive) | > 100 µM (inactive) | > 100 µM (inactive) | > 100 µM (inactive) | > 100 µM (inactive) | – | –
17 | CCOC(=O)c1cccc(=O)c(C(=O)OCC)c1 | 29.4 µM (inactive) | – | 56.9 µM (inactive) | > 100 µM (inactive) | 63.2 µM (inactive) | – | 47.8 µM (inactive) | 31.3 µM (inactive) | 74 µM (inactive) | – | 2.38 µM (inactive) | – | 81.3 µM (inactive) | > 100 µM (inactive) | 44 µM (inactive) | 19.1 µM (inactive) | –
18 | COc1cc(OC(C)=O)cc2c(OC(C)=O)ccc(OC(C)=O)c12 | > 100 µM (inactive) | > 100 µM (inactive) | – | – | > 100 µM (inactive) | > 100 µM (inactive) | > 100 µM (inactive) | > 100 µM (inactive) | > 100 µM (inactive) | > 100 µM (inactive) | > 100 µM (inactive) | – | > 100 µM (inactive) | > 100 µM (inactive) | > 100 µM (inactive) | – | 17.1 µM (inactive)
19 | CC(C)(C)c1cc(C#N)c2c(c1)C(=O)OC2(c1ccccc1)c1ccccc1C#N (stereo not drawn) | 32.1 µM (inactive) | > 100 µM (inactive) | 42.8 µM (inactive) | – | > 100 µM (inactive) | > 100 µM (inactive) | – | 94.6 µM (inactive) | > 100 µM (inactive) | 20.8 µM (inactive) | 78.3 µM (inactive) | > 100 µM (inactive) | > 100 µM (inactive) | > 100 µM (inactive) | > 100 µM (inactive) | > 100 µM (inactive) | –
